The subject of the test is CD2F1 mice, L1210 leukemia ip, survival T/C. The experiment in a line: NCI In Vivo Anticancer Drug Screen. Data for tumor model L1210 Leukemia (intraperitoneal) in CD2F1 (CDF1) mice. The following applies: higher = longer survival. An outline of the steps: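 Transplantable tumor in mice; compound-treated vs vehicle-treated groups. Read-out = treated/control ratio of the measured endpoint.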

[1] abbreviates: endpoint: mean survival time, dose: 100.0 mg/kg/injection, schedule: Q01DX001 (ip), vehicle: saline with Tween-80.
Where [2] appears, read: endpoint: mean survival time, dose: 100.0 mg/kg/injection, schedule: Q01DX009 (ip), vehicle: saline with Tween-80.
Setting [3] is: endpoint: mean survival time, dose: 100.0 mg/kg/injection, schedule: Q04DX002 (ip), vehicle: saline with Tween-80.
Setting [4] is: endpoint: mean survival time, dose: 100.0 mg/kg/injection, schedule: Q04DX003 (ip), vehicle: saline with Tween-80.
Setting [5] is: endpoint: mean survival time, dose: 200.0 mg/kg/injection, schedule: Q01DX001 (ip), vehicle: saline with Tween-80.
Where [6] appears, read: endpoint: mean survival time, dose: 200.0 mg/kg/injection, schedule: Q01DX009 (ip), vehicle: saline with Tween-80.
The mark [7] stands for this setting: endpoint: mean survival time, dose: 200.0 mg/kg/injection, schedule: Q04DX002 (ip), vehicle: saline with Tween-80.
Setting [8] is: endpoint: mean survival time, dose: 200.0 mg/kg/injection, schedule: Q04DX003 (ip), vehicle: saline with Tween-80.
Setting [9] is: endpoint: mean survival time, dose: 400.0 mg/kg/injection, schedule: Q01DX001 (ip), vehicle: saline with Tween-80.
Where [10] appears, read: endpoint: mean survival time, dose: 400.0 mg/kg/injection, schedule: Q01DX009 (ip), vehicle: saline with Tween-80.
[11] abbreviates: endpoint: mean survival time, dose: 400.0 mg/kg/injection, schedule: Q04DX002 (ip), vehicle: saline with Tween-80.
Setting [12] is: endpoint: mean survival time, dose: 400.0 mg/kg/injection, schedule: Q04DX003 (ip), vehicle: saline with Tween-80.
Setting [13] is: endpoint: mean survival time, dose: 50.0 mg/kg/injection, schedule: Q04DX003 (ip), vehicle: saline.
Where [14] appears, read: endpoint: mean survival time, dose: 100.0 mg/kg/injection, schedule: Q04DX003 (ip), vehicle: saline.
[15] abbreviates: endpoint: mean survival time, dose: 200.0 mg/kg/injection, schedule: Q04DX003 (ip), vehicle: saline.
Setting [16] is: endpoint: mean survival time, dose: 50.0 mg/kg/injection, schedule: Q01DX001 (ip), vehicle: saline with Tween-80.

Results on 24 compounds are retold here after PubChem BioAssay AID256 (DTP/NCI, 2004).

Molecules are shown by their SMILES. Several values for one entry are separate records, joined by “and”; a condition that tells them apart may be missing. Identical values can stand only once. Toxic doses and inconclusive results are not listed.

As for `COc1cc([N+](=O)[O-])ccc1NC(=O)N(c1ccccc1)C(C)C`, the T/C reads like this: under setting [1], 101 % of control and 112 % of control; under setting [2], 98 % of control and 105 % of control; under setting [3], 96 % of control; under setting [4], 101 % of control; under setting [5], 101 % of control and 104 % of control; under setting [6], 94 % of control and 95 % of control. Besides, the T/C under setting [7] was 98 % of control; the T/C under setting [8] was 95 % of control; the T/C under setting [9] is 95 % of control and 97 % of control; the T/C under setting [10] is 94 % of control and 101 % of control; the T/C under setting [11] was 98 % of control; the T/C under setting [12] is 103 % of control.
For `CC(=O)OC1CC2(O)C3CCC4CC(O)CCC4(C)C3CCC2(C)C1C1=CC(=O)OC1` (configuration not stated), the T/C was 98 % of control under setting [1] and 101 % of control under setting [5].
Turning to `Cc1cc(C)c(C)c(C(O)(C(=O)O)c2ccccc2)c1` (configuration not stated), the T/C under setting [2] is 100 % of control; the T/C under setting [4] was 97 % of control; the T/C under setting [6] was 88 % of control; the T/C under setting [8] is 101 % of control; the T/C under setting [10] was 96 % of control; the T/C under setting [12] is 92 % of control.
As to `C=C1C(=C)C2C=CC1C1C3C(c4ccccn4)=NN=C(c4ccccn4)C3C21` (configuration not stated), the T/C was 95 % of control (endpoint: mean survival time, dose: 25.0 mg/kg/injection, schedule: Q04DX002 (ip), vehicle: saline with Tween-80); 98 % of control (endpoint: mean survival time, dose: 50.0 mg/kg/injection, schedule: Q04DX002 (ip), vehicle: saline with Tween-80); 98 % of control under setting [3]; 88 % of control under setting [7]; 103 % of control under setting [11].
As for `COc1cc(NC2CCCCC2O)c2nc(-c3ccc(Cl)cc3)ccc2c1` (configuration not stated), the T/C under setting [13] was 110 % of control; the T/C under setting [14] was 96 % of control; the T/C under setting [15] was 107 % of control; the T/C (endpoint: mean survival time, dose: 400.0 mg/kg/injection, schedule: Q04DX003 (ip), vehicle: saline) is 112 % of control.
Regarding `CCC1=C[C@H]2CN(CCc3c([nH]c4ccccc34)[C@@](C(=O)OC)(c3cc4c(cc3OC)N(C)[C@H]3[C@@](O)(C(=O)OC)[C@H](OC(C)=O)[C@]5(CC)C=CCN6CC[C@]43[C@@H]65)C2)C1`, the T/C by setting is: (endpoint: mean survival time, dose: 0.25 mg/kg/injection, schedule: Q01DX009 (ip), vehicle: water) 102 % of control; (endpoint: mean survival time, dose: 2.0 mg/kg/injection, schedule: Q01DX009 (ip), vehicle: water) 161 % of control; (endpoint: mean survival time, dose: 4.0 mg/kg/injection, schedule: Q01DX009 (ip), vehicle: water) 91 % of control; (endpoint: median survival time, dose: 0.5 mg/kg/injection, schedule: Q01DX009 (ip), vehicle: water) 115 % of control.
On to `O=C(NNC(=O)c1ccccc1Cl)Nc1ccc(F)c(Cl)c1`, for which the T/C under setting [2] is 91 % of control, the T/C under setting [6] was 86 % of control and the T/C under setting [10] was 87 % of control.
With `Nc1nc(N)c(-c2ccc(Cl)c(Cl)c2)c(CCc2ccc(NC(=O)Nc3ccc(S(=O)(=O)F)cc3)cc2)n1`, the T/C was 91 % of control under setting [16], 91 % of control under setting [1] and 94 % of control under setting [5].
As to `CC1(C)CCC(C)(C)c2c1ccc(O)c2Sc1c(O)ccc2c1C(C)(C)CCC2(C)C`, the T/C is 97 % of control under setting [2]; 95 % of control under setting [4]; 89 % of control under setting [6]; 97 % of control under setting [8]; 95 % of control under setting [10]; 91 % of control under setting [12].
Consider `CN(N=O)C(=O)NC1C(CO)OC(n2ccc(N)nc2=O)C1O` (configuration not stated), for which the T/C is 101 % of control (endpoint: mean survival time, dose: 12.5 mg/kg/injection, schedule: Q01DX001 (ip), vehicle: saline with Tween-80); 110 % of control (endpoint: mean survival time, dose: 25.0 mg/kg/injection, schedule: Q01DX001 (ip), vehicle: saline with Tween-80); 98 % of control under setting [16]; 98 % of control under setting [1]; 103 % of control under setting [5]; 108 % of control under setting [9].
For `Brc1ccccc1CCc1ccccc1Br`, the T/C is 97 % of control under setting [13], 95 % of control under setting [14] and 100 % of control under setting [15].
Take `O=S(=O)(O)c1cccc2cnccc12`: the T/C is 98 % of control under setting [2]; 93 % of control (endpoint: mean survival time, dose: 100.0 mg/kg/injection, schedule: Q04DX003 (ip), vehicle: saline sonified); 96 % of control under setting [6]; 98 % of control (endpoint: mean survival time, dose: 200.0 mg/kg/injection, schedule: Q04DX003 (ip), vehicle: saline sonified); 93 % of control under setting [10]; 98 % of control (endpoint: mean survival time, dose: 400.0 mg/kg/injection, schedule: Q04DX003 (ip), vehicle: saline sonified).
With `CNC(=O)Oc1ccc(N)cc1`, the T/C (endpoint: mean survival time, dose: 75.0 mg/kg/injection, schedule: Q01DX001 (ip), vehicle: saline) is 102 % of control.
As to `O=C(COC(=O)C1CCCCCCC1)c1ccc(Br)cc1`, the T/C is 100 % of control under setting [1]; 94 % of control under setting [4]; 107 % of control under setting [5]; 96 % of control under setting [8]; 97 % of control under setting [9]; 97 % of control under setting [12].
On to `Cc1ccc(Nc2nc(N)nc3c2ncn3C2OC(CO)C(O)C2O)cc1` (configuration not stated), for which the T/C by setting is: (endpoint: mean survival time, dose: 12.5 mg/kg/injection, schedule: Q01DX005 (ip), vehicle: distilled water + Tween-80) 95 % of control; (endpoint: mean survival time, dose: 25.0 mg/kg/injection, schedule: Q01DX005 (ip), vehicle: distilled water + Tween-80) 90 % of control; (endpoint: mean survival time, dose: 50.0 mg/kg/injection, schedule: Q01DX005 (ip), vehicle: distilled water + Tween-80) 98 % of control; (endpoint: mean survival time, dose: 100.0 mg/kg/injection, schedule: Q01DX005 (ip), vehicle: distilled water + Tween-80) 108 % of control.
Regarding `Cc1cc2ncn(CC(=O)O)c2cc1C`, the T/C by setting is: under setting [2], 98 % of control; under setting [6], 93 % of control.
Regarding `CC(=O)COc1cc(C)cc(C)c1`, the T/C is, setting by setting: under setting [1], 104 % of control; under setting [5], 95 % of control; under setting [9], 101 % of control.
Turning to `CSCc1cn(C2CC(O)C(CO)O2)c(=O)[nH]c1=O` (configuration not stated), the T/C by setting is: (endpoint: mean survival time, dose: 12.5 mg/kg/injection, schedule: Q01DX005 (ip), vehicle: water) 95 % of control; (endpoint: mean survival time, dose: 25.0 mg/kg/injection, schedule: Q01DX005 (ip), vehicle: water) 98 % of control; (endpoint: mean survival time, dose: 50.0 mg/kg/injection, schedule: Q01DX005 (ip), vehicle: water) 98 % of control; (endpoint: mean survival time, dose: 100.0 mg/kg/injection, schedule: Q01DX005 (ip), vehicle: water) 95 % of control; (endpoint: mean survival time, dose: 200.0 mg/kg/injection, schedule: Q01DX005 (ip), vehicle: water) 95 % of control.
Take `O=C(O)/C=C/C(=O)NCCCCCCNC(=O)/C=C/C(=O)O`: the T/C is 91 % of control (endpoint: mean survival time, dose: 100.0 mg/kg/injection, schedule: Q01DX009 (ip), vehicle: saline); 94 % of control (endpoint: mean survival time, dose: 200.0 mg/kg/injection, schedule: Q01DX009 (ip), vehicle: saline); 91 % of control (endpoint: mean survival time, dose: 400.0 mg/kg/injection, schedule: Q01DX009 (ip), vehicle: saline).
As for `Cc1ccc(N)c(N)c1`, the T/C (endpoint: median survival time, dose: 25.0 mg/kg/injection, schedule: Q01DX009 (ip), vehicle: saline with Tween-80) is 98 % of control; the T/C (endpoint: median survival time, dose: 50.0 mg/kg/injection, schedule: Q01DX009 (ip), vehicle: saline with Tween-80) is 98 % of control; the T/C (endpoint: median survival time, dose: 100.0 mg/kg/injection, schedule: Q01DX009 (ip), vehicle: saline with Tween-80) is 96 % of control.
For the compound `O=C(OCCNc1ccc([N+](=O)[O-])cc1[N+](=O)[O-])c1ccccc1`, the T/C is 101 % of control (endpoint: mean survival time, dose: 100.0 mg/kg/injection, schedule: Q04DX002 (ip), vehicle: other); 108 % of control (endpoint: mean survival time, dose: 200.0 mg/kg/injection, schedule: Q04DX002 (ip), vehicle: other); 96 % of control (endpoint: mean survival time, dose: 400.0 mg/kg/injection, schedule: Q04DX002 (ip), vehicle: other).
For `N#CC(C#N)C(O)c1c[nH]c2ccccc12` (configuration not stated), the T/C runs as follows: under setting [1], 102 % of control; under setting [5], 96 % of control; under setting [9], 94 % of control.
Take `O=Cc1n[nH]nc1-c1ccccc1`: the T/C is 94 % of control under setting [2]; 98 % of control under setting [4]; 100 % of control under setting [6]; 101 % of control under setting [8]; 103 % of control under setting [10]; 95 % of control under setting [12].
As to `CCCCCC(=O)C(C)CC` (configuration not stated), the T/C runs as follows: under setting [4], 96 % of control; under setting [8], 104 % of control; under setting [12], 94 % of control.
